This is an account of results in ChEMBL document CHEMBL1136889, “The application of the phosphoramidate ProTide approach confers micromolar potency against hepatitis C virus on inactive agent 4'-azidoinosine: kinase bypass on a dual base/sugar modified nucleoside” (Bioorg Med Chem Lett, 2009).

Data set [1] is described as follows: Cytotoxicity against human HuH7 cells assessed as [3H]thymidine incorporation. In kind it is cell-based, Huh-7. A general note: Incorporation of labelled thymidine or its analogues reports DNA synthesis.
The next data set relates to Hepatitis C virus. In words: Antiviral activity against HCV 1b in human HuH7 cells assessed as renilla luciferase activity by replicon assay. In kind it is functional, organism-based, Hepacivirus hominis. To be noted: genotype 1b, Huh-7.

What is called CC50 is the concentration at which the toxic effect on the cells reaches its halfway point. Usually EC50 stands for the concentration needed to bring the measured effect to its halfway point. For `C[C@H](NP(=O)(OC[C@@]1(N=[N+]=[N-])O[C@@H](n2cnc3c(=O)[nH]cnc32)[C@H](O)[C@@H]1O)Oc1ccccc1)C(=O)OCc1ccccc1` (stereo partly drawn), the CC50 in data set [1] is > 100 µM. In addition, in the data set on Hepatitis C virus, the EC50 is > 100 µM.
As for `CC(C)OC(=O)[C@H](C)NP(=O)(OC[C@@]1(N=[N+]=[N-])O[C@@H](n2cnc3c(=O)[nH]cnc32)[C@H](O)[C@@H]1O)Oc1cccc2ccccc12` (stereo partly drawn), the 50% cytotoxic concentration (CC50) in data set [1] is > 100 µM. In the data set with Hepatitis C virus, the EC50 came to 6.1 µM.
Turning to `[N-]=[N+]=N[C@]1(CO)O[C@@H](n2cnc3c(=O)[nH]cnc32)[C@H](O)[C@@H]1O`, the CC50 in data set [1] is > 100 µM. In addition, the EC50 with Hepatitis C virus is > 100 µM.
For `C[C@H](NP(=O)(OC[C@@]1(N=[N+]=[N-])O[C@@H](n2cnc3c(=O)[nH]cnc32)[C@H](O)[C@@H]1O)Oc1cccc2ccccc12)C(=O)OCc1ccccc1` (stereo partly drawn), the CC50 in data set [1] is > 100 µM. Moreover, the half-maximal effective concentration (EC50) in the data set on Hepatitis C virus amounted to 4.3 µM.
For `CCOC(=O)[C@H](C)NP(=O)(OC[C@@]1(N=[N+]=[N-])O[C@@H](n2cnc3c(=O)[nH]cnc32)[C@H](O)[C@@H]1O)Oc1ccccc1` (stereo partly drawn), in data set [1], the CC50 is > 100 µM. In the data set on Hepatitis C virus, the EC50 is > 100 µM.
Turning to `CC(C)OC(=O)[C@H](C)NP(=O)(OC[C@@]1(N=[N+]=[N-])O[C@@H](n2cnc3c(=O)[nH]cnc32)[C@H](O)[C@@H]1O)Oc1ccccc1` (stereo partly drawn), in data set [1], the CC50 is > 100 µM. The EC50 in the data set on Hepatitis C virus is > 100 µM.
With `C[C@H](NP(=O)(OC[C@@]1(N=[N+]=[N-])O[C@@H](n2cnc3c(=O)[nH]cnc32)[C@H](O)[C@@H]1O)Oc1ccccc1)C(=O)OC(C)(C)C` (stereo partly drawn), the CC50 in data set [1] was > 100 µM. Moreover, in the data set on Hepatitis C virus, the EC50 is > 100 µM.
Consider `C[C@H](NP(=O)(OC[C@@]1(N=[N+]=[N-])O[C@@H](n2cnc3c(=O)[nH]cnc32)[C@H](O)[C@@H]1O)Oc1cccc2ccccc12)C(=O)OC(C)(C)C` (stereo partly drawn), for which the half-maximal cytotoxic concentration (CC50) in data set [1] is > 100 µM. Also, the EC50 in the data set with Hepatitis C virus was > 100 µM.
As for `CCOC(=O)[C@H](C)NP(=O)(OC[C@@]1(N=[N+]=[N-])O[C@@H](n2cnc3c(=O)[nH]cnc32)[C@H](O)[C@@H]1O)Oc1cccc2ccccc12` (stereo partly drawn), the CC50 in data set [1] was > 100 µM. Moreover, the concentration giving a half-maximal response (EC50) with Hepatitis C virus stood at 16.4 µM.
